Results on 22 compounds are retold here after patent US6858739B2, “Indole and benzimidazole 15-lipoxygenase inhibitors” (Warner-Lambert Company, priority 2000, dated 2005).

In data set [1] the target is T1, rabbit reticulocyte 15-LO (Oryctolagus cuniculus, UniProt P12530).
T1 construct: one utilizing rabbit reticulocyte 15-LO; from tissue; host or cells: rabbit reticulocytes
T1 sequence (P12530 1-663): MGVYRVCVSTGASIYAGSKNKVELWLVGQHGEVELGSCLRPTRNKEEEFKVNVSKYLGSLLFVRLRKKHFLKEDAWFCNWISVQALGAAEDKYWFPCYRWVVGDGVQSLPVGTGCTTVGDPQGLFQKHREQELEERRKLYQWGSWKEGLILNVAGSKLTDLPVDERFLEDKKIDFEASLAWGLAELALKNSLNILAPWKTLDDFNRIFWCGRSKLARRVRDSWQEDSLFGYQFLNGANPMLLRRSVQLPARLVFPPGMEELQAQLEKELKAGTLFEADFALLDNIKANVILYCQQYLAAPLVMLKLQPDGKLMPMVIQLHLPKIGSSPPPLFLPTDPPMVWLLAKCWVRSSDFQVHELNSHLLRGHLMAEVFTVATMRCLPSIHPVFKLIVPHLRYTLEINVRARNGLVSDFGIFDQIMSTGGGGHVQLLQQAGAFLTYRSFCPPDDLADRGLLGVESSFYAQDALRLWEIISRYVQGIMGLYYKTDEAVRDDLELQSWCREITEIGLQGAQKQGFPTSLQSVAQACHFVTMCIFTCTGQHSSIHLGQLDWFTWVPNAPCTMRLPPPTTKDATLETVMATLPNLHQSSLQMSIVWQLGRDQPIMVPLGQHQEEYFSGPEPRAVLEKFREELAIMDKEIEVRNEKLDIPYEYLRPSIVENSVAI
Put plainly: 15-LO inhibition, rabbit reticulocyte enzyme (HPLC method of Auerbach et al.). It is filed as biochemical. The note with it: linoleic acid as substrate, incubation at 4° C. for 10 minutes. As for the experimental part:
(§1) The compounds described above are effective inhibitors of 15-LO when evaluated in standard assays routinely utilized to measure 15-LO activity. Specifically, representative compounds were evaluated by the methods described by Auerbach et al., Analytical Biochemistry, 1992;201:375-380. Two in vitro assays were utilized, one utilizing rabbit reticulocyte 15-LO, the other using human 15-LO. Both used linoleic acid as substrate, to enzymatically produce a peroxide oxidation product known as 13(S)-HPODE. N-Benzoyl leucomethylene blue was utilized as a colorimetric reagent for detection and quantification of the peroxide formation. Also, HPLC was utilized to quantify the oxidation following incubation at 4° C. for 10 minutes.
(§2) Data Column 1 gives the concentration of compound required to inhibit 50% of the activity of 15-LO (IC50) when measured by the HPLC method of Auerbach et al. using rabbit enzymes, and data Column 2 gives data from human 15-LO enzyme.

In the next data set the target is T2, human 15-LO (Homo sapiens, UniProt P16050).
T2 sequence (P16050 1-662): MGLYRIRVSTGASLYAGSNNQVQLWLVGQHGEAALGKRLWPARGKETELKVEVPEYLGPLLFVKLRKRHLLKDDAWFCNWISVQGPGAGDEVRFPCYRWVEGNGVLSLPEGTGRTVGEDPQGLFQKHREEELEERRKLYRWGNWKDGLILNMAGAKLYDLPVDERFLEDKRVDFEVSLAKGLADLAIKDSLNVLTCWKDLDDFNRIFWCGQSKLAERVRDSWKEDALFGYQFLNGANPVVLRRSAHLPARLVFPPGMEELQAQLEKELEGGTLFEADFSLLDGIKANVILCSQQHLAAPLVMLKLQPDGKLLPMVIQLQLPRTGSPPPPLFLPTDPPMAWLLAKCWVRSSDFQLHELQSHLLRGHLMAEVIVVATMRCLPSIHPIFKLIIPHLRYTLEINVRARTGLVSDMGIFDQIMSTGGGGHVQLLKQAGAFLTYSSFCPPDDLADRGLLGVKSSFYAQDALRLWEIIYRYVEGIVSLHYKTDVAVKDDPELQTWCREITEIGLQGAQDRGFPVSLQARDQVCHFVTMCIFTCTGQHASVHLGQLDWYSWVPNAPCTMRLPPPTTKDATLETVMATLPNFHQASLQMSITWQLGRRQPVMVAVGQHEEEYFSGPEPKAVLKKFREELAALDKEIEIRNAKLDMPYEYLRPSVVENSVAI
Put plainly: 15-LO inhibition, human enzyme. It is filed as biochemical. The note with it: linoleic acid as substrate; for inhibition at 10 µM: at 10 micromolar. As for the experimental part:
as §1, §2

The structures appear in SMILES notation.

What is called IC50 is the point on the concentration scale where inhibition reaches its midpoint. Read a low IC50 as inhibition by little substance. One may read the melting point as the temperature, or range, at which the solid turns liquid. With `COc1ccc(-c2cc3ccccc3[nH]2)cc1N` [Example 1, 5-(1H-Indol-2-yl)-2-methoxy-phenylamine], the melting point lay within 208 to 209 °C. In data set [1], this compound yielded an IC50 of 113 nM. Besides, the IC50 on human 15-LO worked out at 23 nM.
For `COc1ccc(-c2cc3ccccc3[nH]2)cc1NC(=S)Nc1cc(Cl)cc(Cl)c1` [Example 2, 1-(3,5-Dichloro-phenyl)-3-[5-(1H-indol-2-yl)-2-methoxy-phenyl]-thiourea], the melting point was 199 to 201 °C. In data set [1], this compound gave an IC50 of 11 nM. In addition, the IC50 against human 15-LO amounted to 29 nM.
The corresponding values for `COc1ccc(-c2cc3cc(F)c(F)cc3[nH]2)cc1N` [Example 3, 5-(5,6-Difluoro-1H-indol-2-yl)-2-methoxy-phenylamine] are 210 to 211 °C, 27 nM and 53 nM.
Taken in the same sequence, the figures for `COc1ccc(-c2cc3cc(F)c(F)cc3[nH]2)cc1NC(=S)Nc1cc(Cl)cc(Cl)c1` [Example 4, 1-(3,5-Dichloro-phenyl)-3-[5-(5,6-difluoro-1H-indol-2-yl)-2-methoxy-phenyl]-thiourea] were 203 to 205 °C, 30 nM and 60 nM.
Compound `COc1ccc(-c2cc3cc(F)c(F)cc3[nH]2)cc1NC(=S)Nc1ccc(C(=O)O)cc1` [Example 5, 4-{3-[5-(5,6-Difluoro-1H-indol-2-yl)-2-methoxy-phenyl]-thioureido}-benzoic acid] had a melting point of 201 to 203 °C. This compound showed an IC50 in data set [1] of 11 nM. Moreover, the IC50 against human 15-LO turned out to be 13 nM.
`COc1ccc(-c2cc3cc(F)c(F)cc3[nH]2)cc1NC(=S)Nc1cccc(C(=O)O)c1` [Example 6, 3-{3-[5-(5,6-Difluoro-1H-indol-2-yl)-2-methoxy-phenyl]-thioureido}-benzoic acid] had a melting point of 221 to 223 °C. In data set [1], this compound gave an IC50 of 2 nM. At human 15-LO, this compound came in with an IC50 of 25 nM.
In turn, `COc1ccc(-c2cc3cc(F)c(F)cc3[nH]2)cc1NS(C)(=O)=O` [Example 7, N-[5-(5,6-Difluoro-1H-indol-2-yl)-2-methoxy-phenyl]-methanesulfonamide] returned a melting point of 254 to 256 °C. Moreover, in data set [1], the IC50 is 10 nM. On human 15-LO, this compound registered an IC50 of 19 nM.
The compound `COc1ccc(-c2cc3cc(F)c(F)cc3[nH]2)cc1NS(=O)(=O)c1cc(Cl)cc(Cl)c1` [Example 8, 3,5-Dichloro-N-[5-(5,6-difluoro-1H-indol-2-yl)-2-methoxy-phenyl]-benzenesulfonamide] came in with a melting point of 217 to 219 °C. Further, 19 nM corresponded to half-maximal inhibition in data set [1] (IC50). In addition, the midpoint of inhibition against human 15-LO, the IC50, lay at 73 nM.
`COc1ccc(-c2cc3cc(F)c(F)cc3[nH]2)cc1NS(=O)(=O)c1cccs1` [Example 9, Thiophene-2-sulfonic acid [5-(5,6-difluoro-1H-indol-2-yl)-2-methoxy-phenyl]-amide] had a melting point of 211 to 213 °C. The compound also came in with an IC50 in data set [1] of 40 nM. The 50% inhibitory concentration (IC50) on human 15-LO was 7 nM.
A word on the inhibition: it is the percentage by which the read-out fell short of the control. A high value points to strong suppression. As for `COc1ccc(-c2nc3cc(Cl)c(Cl)cc3n2C(=O)OCc2ccccc2)cc1NS(=O)(=O)c1cccs1` [Example 10, 5,6-Dichloro-2-[4-methoxy-3-(thiophene-2-sulfonylamino)-phenyl]-benzoimidazole-1-carboxylic acid benzyl ester], the melting point lay within 195 to 198 °C. In data set [1], this compound registered an IC50 of 1390 nM. This compound showed an inhibition at 10 µM on human 15-LO of 81%.
Take `COc1ccc(-c2cc3cc(F)c(F)cc3[nH]2)cc1NCc1cccc(O)c1` [Example 11, 3-{[5-(5,6-Difluoro-1H-indol-2-yl)-2-methoxy-phenylamine]-methyl}-phenol]: the results for the IC50 (in data set [1]; against human 15-LO) were 24 nM and 106 nM, respectively.
`COc1ccc(-c2cc3cc(F)c(F)cc3[nH]2)cc1NCc1cccs1` [Example 12, [5-(5,6-Difluoro-1H-indol-2-yl)-2-methoxy-phenyl]-thiophen-2-ylmethyl-amine] returned a melting point of 190 to 192 °C. Also, in data set [1], the IC50 came to 45 nM. The midpoint of inhibition at human 15-LO, the IC50, lay at 461 nM.
Taken in the same sequence, the figures for `COc1ccc(CNc2cc(-c3cc4cc(F)c(F)cc4[nH]3)ccc2OC)cc1` [Example 13, [5-(5,6-Difluoro-1H-indol-2-yl)-2-methoxy-phenyl]-(4-methoxy-benzyl)-amine] were 173 to 175 °C, 40 nM and 414 nM.
In turn, `COC(=O)c1ccc(CNc2cc(-c3cc4cc(F)c(F)cc4[nH]3)ccc2OC)cc1` [Example 14, 4-{[5-(5,6-Difluoro-1H-indol-2-yl)-2-methoxy-phenylamino]-methyl}-benzoic acid methyl ester] yielded a melting point of 168 to 170 °C. In data set [1], this compound showed an IC50 of 113 nM. 1260 nM corresponded to half-maximal inhibition at human 15-LO (IC50).
As for `COc1ccc(-c2cc3cc(F)c(F)cc3[nH]2)cc1NCc1cccc([N+](=O)[O-])c1` [Example 46, [5-(5,6-Difluoro-1H-indol-2-yl)-2-methoxy-phenyl]-(3-nitro-benzyl)-amine], the melting point fell in the range of 212 to 214 °C. It took 3030 nM to reach half-maximal inhibition on human 15-LO (IC50).
The compound `COc1ccc(-c2cc3cc(F)c(F)cc3[nH]2)cc1NCc1ccc([N+](=O)[O-])cc1` [Example 47, [5-(5,6-Difluoro-1H-indol-2-yl)-2-methoxy-phenyl]-(4nitro-benzyl)-amine] displayed a melting point of 181 to 182 °C. Moreover, at human 15-LO, the IC50 worked out at 534 nM.
Consider `COc1ccc(-c2cc3cc(F)c(F)cc3[nH]2)cc1NCc1ccc([N+](=O)[O-])c(O)c1` [Example 48, [5-(5,6-Difluoro-1H-indol-2-yl)-2-methoxy-phenyl]-(3-hydroxy-4-nitro-benzyl)-amine], for which the melting point is 170 to 171 °C. For the same compound, the inhibition at 10 µM on human 15-LO turned out to be 98%.
The corresponding values for `COc1ccc(-c2cc3cc(F)c(F)cc3[nH]2)cc1NCc1ccc(O)c([N+](=O)[O-])c1` [Example 49, [5-(5,6-Difluoro-1H-indol-2-yl)-2-methoxy-phenyl](4-hydroxy-3-nitro-benzyl)-amine] are 195 to 196 °C and 99%.
Regarding `COc1ccc(-c2cc3cc(F)c(F)cc3[nH]2)cc1NCc1cccc(C#N)c1` [Example 51, [5-(5,6-Difluoro-1H-indol-2yl)-2-methoxy-phenyl]-(3-cyano-benzyl)-amine], the melting point was in the range of 154 to 155 °C. The same compound showed an IC50 against human 15-LO of 432 nM.
Taken in the same sequence, the figures for `COC(=O)c1ccc(Nc2cc(-c3cc4cc(F)c(F)cc4[nH]3)ccc2OC)cc1` [Example 52, 4-[5-(5,6-Difluoro-1H-indol-2-yl)-2-methoxy-phenylamino]-benzoic acid methyl ester] were 166 to 170 °C and 31 nM.
Take `COc1ccc(-c2cc3cc(F)c(F)cc3[nH]2)cc1Nc1cccc(OCc2ccccc2)c1` [Example 53, [5-(5,6-Difluoro-1H-indol-2-yl)-2-methoxy-phenyl]-(3-benzyloxy-phenyl)-amine]: the figures for the IC50 (in data set [1]; on human 15-LO) were 16 nM and 22 nM, respectively.
Consider `COc1ccc(-c2cc3cc(Cl)c(Cl)cc3[nH]2)cc1Nc1cccc(C(F)(F)F)c1` [Example 54, [5-(5,6-Dichloro-1H-indol-2-yl)-2-methoxy-phenyl]-(3-trifluoro-methylphenyl)-amine], for which the melting point was 193 to 194 °C. The IC50 against human 15-LO amounted to 127 nM.
